Results taken from patent US9409952B2, “Peptide-compound cyclization method” (Chugai Seiyaku Kabushiki Kaisha, priority 2011, dated 2016).
Where two headings read alike, the source gives them in different places. Starred links: 1 amine or outer side, 2 acyl side, 3 side chain; linkers in the order of their positions; H or OH if unused. Positions of bridges follow the written chain, without caps; N, C: chain ends. Non-standard residues stand in square brackets, D forms with d. Residues, ends and D or L forms follow the SMILES beside them. *: point of attachment. NMeF = CN[C@@H](Cc1ccccc1)C(=O)O; NMeGABA = CN(CCCC(=O)[*:2])[*:1]; NMeI = CC[C@H](C)[C@H](NC)C(=O)O; NMeL = CN[C@@H](CC(C)C)C(=O)O; NMeV = CN[C@H](C(=O)O)C(C)C; NMeA = CN[C@@H](C)C(=O)O; Piperidide = C1CCN(*)CC1; dNMeA = CN[C@H](C)C(=O)O; Sar = CNCC(=O)O

Columns and labels:
[1] = Metabolic stability in human hepatic microsome; format: in vitro ADME; conditions: microsomes
[2] = PAMPA (parallel artificial membrane permeability assay); format: in vitro ADME; conditions: PAMPA
How it was run: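 Artificial membrane was 10% (w/v) egg lecithin plus 0.5% (w/v) cholesterol in dodecane on a PVDF filter. A 10 mM DMSO stock was added at 0.5% (v/v) to donor buffer (50 mM MOPSO, pH 6.5, 5.0% glycocholic acid). After 18 h at 37 °C, LC/MS or LC/UV gave donor and acceptor levels for Pe.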

[3] = pH 7.4, human hepatic microsome, NADPH(+), read-out: CL NADPH(+)
[4] = membrane permeation rate (Pe), 50 mM MOPSO buffer pH 6.5 with 5.0% glycocholic acid, 37° C., 18 hours, read-out: iPAMPA Pe

| Compound | microsomal CLint at 1 uM ([1]; human, pH 7.4, CL NADPH(+)) [µL/min/mg] | Papp at 18 hours, 50 µM ([2]; pH 6.5) [×10⁻⁶ cm/s] | microsomal CLint at 1 uM [1, 3] [µL/min/mg] | Papp at 18 hours, 50 µM [2, 4] [×10⁻⁶ cm/s] |
| --- | --- | --- | --- | --- |
| CC[C@H](C)[C@H]1C(=O)N[C@@H](Cc2ccccc2)C(=O)N(C)[C@@H](CC(C)C)C(=O)N[C@@H](CC(C)C)C(=O)N[C@H](C(=O)N2CCCCC2)CC(=O)N(C)[C@H](C)C(=O)N[C@@H](CC(C)C)C(=O)N(C)[C@@H](C)C(=O)N2CCC[C@H]2C(=O)N[C@@H]([C@@H](C)O)C(=O)N(C)[C@@H](Cc2ccccc2)C(=O)NCC(=O)N1C [DP-224] ([dNMeA]L[NMeA]PT[NMeF]G[NMeI]F[NMeL]LD-Piperidide; lactam N-12) | 18 | 18 | – | – |
| CC[C@H](C)[C@H]1C(=O)N(C)[C@@H](CC(C)C)C(=O)N[C@H](C(=O)N2CCCCC2)CC(=O)N(C)CCCC(=O)N(C)[C@@H](Cc2ccccc2)C(=O)N[C@@H](Cc2ccccc2)C(=O)N2CCC[C@H]2C(=O)N[C@@H](CC(C)C)C(=O)N(C)[C@@H](C(C)C)C(=O)N[C@@H]([C@@H](C)O)C(=O)N(C)CC(=O)N[C@@H](C)C(=O)N1C [DP-225] ([NMeGABA][NMeF]FPL[NMeV]T[Sar]A[NMeI][NMeL]D-Piperidide; lactam N-12) | – | – | 32 | 16 |
| CC[C@H](C)[C@@H]1NC(=O)[C@H](Cc2ccccc2)N(C)C(=O)[C@H](Cc2ccccc2)NC(=O)[C@H](C(C)C)N(C)C(=O)[C@H](CC(C)C)N(C)C(=O)[C@H](CC(C)C)NC(=O)[C@@H](C)NC(=O)C[C@@H](C(=O)N2CCCCC2)NC(=O)[C@H]([C@@H](C)O)NC(=O)[C@H](C)NC(=O)[C@H](C)N(C)C1=O [DP-226] ([dA]L[NMeL][NMeV]F[NMeF]I[NMeA]ATD-Piperidide; lactam N-11) | – | – | 46 | 32 |
| CC[C@H](C)[C@H]1C(=O)N[C@@H]([C@@H](C)O)C(=O)N[C@@H](Cc2ccccc2)C(=O)N2CCC[C@H]2C(=O)NCC(=O)N(C)[C@@H](CC(C)C)C(=O)N[C@H](C(=O)N2CCCCC2)CC(=O)N[C@H](C)C(=O)N[C@@H](Cc2ccccc2)C(=O)N(C)[C@@H](CC(C)C)C(=O)N[C@@H](CC(C)C)C(=O)N1C [DP-227] ([dA]F[NMeL]L[NMeI]TFPG[NMeL]D-Piperidide; lactam N-11) | 141 | 38 | – | – |
| CC[C@H](C)[C@H]1C(=O)N[C@@H]([C@@H](C)O)C(=O)N[C@@H](CC(C)C)C(=O)N[C@H](C(=O)N2CCCCC2)CC(=O)N[C@H](C)C(=O)N(C)[C@@H](CC(C)C)C(=O)N(C)[C@@H](CC(C)C)C(=O)N(C)[C@@H](Cc2ccccc2)C(=O)N(C)[C@@H](CC(C)C)C(=O)N(C)[C@@H](Cc2ccccc2)C(=O)N[C@@H](C)C(=O)N1C [DP-228] ([dA][NMeL][NMeL][NMeF][NMeL][NMeF]A[NMeI]TLD-Piperidide; lactam N-11) | – | – | 28 | 5.2 |
| CC[C@H](C)[C@H]1C(=O)N[C@@H](Cc2ccccc2)C(=O)N[C@H](C(=O)N2CCCCC2)CC(=O)N[C@H](C)C(=O)N[C@@H](C)C(=O)N(C)[C@@H](CC(C)C)C(=O)N(C)[C@@H](CC(C)C)C(=O)N(C)[C@@H](Cc2ccccc2)C(=O)N[C@@H]([C@@H](C)O)C(=O)N(C)[C@@H](C)C(=O)N(C)[C@@H](C(C)C)C(=O)N1C [DP-229] ([dA]A[NMeL][NMeL][NMeF]T[NMeA][NMeV][NMeI]FD-Piperidide; lactam N-11) | – | – | 100 | 33 |
| CC[C@H](C)[C@@H]1NC(=O)[C@H](Cc2ccccc2)N(C)C(=O)[C@H](C(C)C)N(C)C(=O)[C@H](Cc2ccccc2)NC(=O)[C@H](CC(C)C)N(C)C(=O)[C@H](CC(C)C)NC(=O)[C@@H](C(C)C)NC(=O)C[C@@H](C(=O)N2CCCCC2)NC(=O)[C@H]([C@@H](C)O)NC(=O)[C@H](C)NC(=O)[C@H](C)N(C)C1=O [DP-230] ([dV]L[NMeL]F[NMeV][NMeF]I[NMeA]ATD-Piperidide; lactam N-11) | – | – | 31 | 44 |
